Test results reported in patent US7470663B2, “Mixtures of insulin drug-oligomer conjugates comprising polyalkylene glycol, uses thereof, and methods of making same” (Biocon Limited, priority 2001, dated 2008).

Test system: normal fasted beagle dogs
Assay: Activity and inter-subject variability: glucose lowering after oral liquid dosage formulation
Type: in vivo
Conditions: fasted beagles, 0.25 mg/kg oral liquid; compared with polydispersed PEG7AVG-hexyl-insulin, monoconjugate (FIG. 21)
Protocol: The inter-subject variability may be measured by various methods as will be understood by those skilled in the art. The inter-subject variability is preferably calculated as follows. The area under a dose response curve (AUC) (i.e., the area between the dose-response curve and a baseline value) is determined for each subject. The average AUC for all subjects is determined by summing the AUCs of each subject and dividing the sum by the number of subjects. The absolute value of the difference between the subject's AUC and the average AUC is then determined for each subject. The absolute values of the differences obtained are then summed to give a value that represents the inter-subject variability. Lower values represent lower inter-subject variabilities and higher values represent higher inter-subject variabilities.
An effective animal model for evaluating formulations uses normal fasted beagle dogs. These dogs are given 0.25 mg/kg of insulin conjugates to evaluate the efficacy of various formulations.
The protocol for dog experiments calls for a blood glucose measurement at time zero just before a drug is administered. The oral liquid dosage formulation is then squirted into the back of the dog's mouth. In each case, the dogs received 0.25 mg/kg of this solution. Blood is drawn at 15, 30, 60 and 120 minutes and glucose levels are measured and graphed. The lower the glucose levels, the better the activity of the insulin conjugate.

Row | Substance | activity (glucose lowering) | inter-subject variability
1 | PEG7-hexyl-insulin, monoconjugate: human insulin monoconjugated at the B29 position with the activated mPEG7-hexyl oligomer of Example 18; non-polydispersed mixture | higher activity | less inter-subject variability
2 | PEG10-hexyl-insulin, monoconjugate: non-polydispersed mixture of mPEG10-hexyl-insulin, monoconjugates | higher activity | less inter-subject variability
